The structures appear in SMILES notation.

One assay concerns the target human CYP4F2 (Homo sapiens (Human), UniProt P78329). Description: Inhibition test against 20-HETE producing enzyme CYP4F2 (luciferine derivative, luminescence). Type of assay: biochemical. The procedure, abridged:
(§1)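 IC50 derived from luminescence after 60 min at room temperature with membrane fractions of E. coli expressing each human CYP (100 μg/mL protein). For CYP4A11, 60 μM luciferin derivative in 100 mM Tris-HCl pH 7.5 with NADPH-regenerating system; for CYP4F2, 2.5 μM substrate, 1 mM NADPH, 50 mM KPO4 pH 7.4.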

Another assay addresses human CYP4A11 (Homo sapiens (Human), UniProt Q02928). Briefly: Inhibition test against 20-HETE producing enzyme CYP4A11 (luciferine derivative, luminescence). Type of assay: biochemical. The procedure, abridged:
as §1

[1] abbreviates: human CYP4F2, luciferine derivative, luminescence.
[2] abbreviates: human CYP4A11, luciferine derivative, luminescence.
The mark [3] stands for this setting: E. coli membrane fraction expressing human CYP4F2, 2.5 μM luciferine derivative, room temperature 60 minutes.
Setting [4] is: E. coli membrane fraction expressing human CYP4A11, 60 μM luciferine derivative, room temperature 60 minutes.

Chain of human CYP4A11 (Q02928 5-519): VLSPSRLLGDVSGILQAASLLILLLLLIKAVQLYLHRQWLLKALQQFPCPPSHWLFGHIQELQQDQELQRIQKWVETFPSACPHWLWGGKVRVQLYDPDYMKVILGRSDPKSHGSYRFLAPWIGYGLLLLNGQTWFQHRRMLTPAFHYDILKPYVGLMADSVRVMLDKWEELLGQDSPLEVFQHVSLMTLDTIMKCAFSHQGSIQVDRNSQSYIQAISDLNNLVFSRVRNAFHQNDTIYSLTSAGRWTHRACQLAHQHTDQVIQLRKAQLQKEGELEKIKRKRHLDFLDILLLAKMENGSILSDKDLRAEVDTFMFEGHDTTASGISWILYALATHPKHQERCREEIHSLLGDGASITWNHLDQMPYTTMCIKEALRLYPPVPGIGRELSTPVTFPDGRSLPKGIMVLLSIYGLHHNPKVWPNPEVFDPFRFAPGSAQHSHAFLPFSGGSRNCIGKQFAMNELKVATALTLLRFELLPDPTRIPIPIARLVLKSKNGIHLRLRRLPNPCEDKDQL
Chain of human CYP4F2 (P78329 5-520): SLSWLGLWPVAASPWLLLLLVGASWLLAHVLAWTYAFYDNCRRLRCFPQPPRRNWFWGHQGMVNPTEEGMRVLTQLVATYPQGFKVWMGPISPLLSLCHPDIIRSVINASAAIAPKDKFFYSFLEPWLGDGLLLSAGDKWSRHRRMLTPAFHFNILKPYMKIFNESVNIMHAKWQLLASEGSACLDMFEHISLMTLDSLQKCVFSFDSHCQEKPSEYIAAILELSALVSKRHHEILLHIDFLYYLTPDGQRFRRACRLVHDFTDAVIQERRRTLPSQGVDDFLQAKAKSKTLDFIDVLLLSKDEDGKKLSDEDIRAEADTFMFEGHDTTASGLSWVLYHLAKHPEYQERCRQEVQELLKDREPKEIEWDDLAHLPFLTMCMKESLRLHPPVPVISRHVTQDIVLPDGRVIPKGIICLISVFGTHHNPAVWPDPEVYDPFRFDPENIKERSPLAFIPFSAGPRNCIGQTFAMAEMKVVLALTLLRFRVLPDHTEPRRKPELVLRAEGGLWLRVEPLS

For `O=C(CCc1cccc(COc2cnc(-c3ccn[nH]3)c(F)c2)c1)NCCO` [Example 42-18], the IC50 came out at 21 nM on human CYP4F2 (setting [1]) and 58 nM on human CYP4A11 (setting [2]).
In the case of `O=C(c1ccc(=O)[nH]c1)N1CCC[C@@H](COc2ccc(-c3ccn[nH]3)nc2)C1` [Example 41-3], the IC50 against human CYP4F2 (setting [3]) was 4300 nM; at human CYP4A11 (setting [4]), 570 nM.
On to `O=C(O)c1ccc(-c2cccc(COc3ccc(-c4ccn[nH]4)nc3)c2)nc1` [Example 18-2], for which the values for the IC50 against human CYP4F2 (setting [3]) and at human CYP4A11 (setting [4]) were 230 nM and 12 nM, respectively.
On to `O=C(c1cccc(=O)[nH]1)N1CCC[C@@H](COc2ccc(-c3ccn[nH]3)nc2)C1` [Example 41-4], for which the values for the IC50 against human CYP4F2 (setting [3]) and against human CYP4A11 (setting [4]) were 1500 nM and 710 nM, respectively.
Consider `O=C(O)C1(CCCCOc2ccc(-c3ccn[nH]3)nc2)CCCC1` [Example 1-34], for which the IC50 against human CYP4F2 (setting [3]) turned out to be 1800 nM; at human CYP4A11 (setting [4]), 38 nM.
Taken in the same sequence, the figures for `O=C(O)c1ccc(CCCOc2ccc(-c3ccn[nH]3)nc2)cc1` [Example 1-8] were 2600 nM and 78 nM.
Taken in the same sequence, the figures for `CC(C)(C(=O)O)c1cccc(OCCOc2ccc(-c3ccn[nH]3)nc2)c1` [Example 24-3] were 3200 nM and 60 nM.
For `O=C(Cc1cccc(COc2ccc(-c3ccn[nH]3)nc2)c1)NCCO` [Example 42-7], the IC50 against human CYP4F2 (setting [3]) was 1100 nM; at human CYP4A11 (setting [4]) it was 760 nM.
As for `O=C(N[C@H]1C[C@H](C(=O)O)C1)c1cccc(COc2ccc(-c3ccn[nH]3)nc2)c1` [Example 45-22], the values for the IC50 at human CYP4F2 (setting [1]) and at human CYP4A11 (setting [2]) were 2800 nM and 97 nM, respectively.
In the case of `CNC(=O)CCc1cccc(COc2ccc(-c3ccn[nH]3)nc2)c1` [Example 42-8], the IC50 on human CYP4F2 (setting [3]) was determined as 70 nM; on human CYP4A11 (setting [4]), 120 nM.
In the case of `CN(C)C(=O)C1CC1c1cccc(COc2ccc(-c3ccn[nH]3)nc2)c1` (stereo not drawn) [Example 43-16], the IC50 was 22 nM against human CYP4F2 (setting [1]) and 190 nM against human CYP4A11 (setting [2]).
For the compound `NC(=O)c1cc(COc2ccc(-c3[nH]ncc3C(F)F)nc2)ccn1` [Example 67-1, 4-[[6-[4-(Difluoromethyl)-1H-pyrazol-5-yl]-3-pyridinyl]oxymethyl]-2-pyridinecarboxamide], the IC50 against human CYP4F2 (setting [3]) is 2700 nM; against human CYP4A11 (setting [4]) it was greater than 50000 nM.
The matching figures for `Oc1cc(COc2ccc(-c3ccn[nH]3)nc2)ccc1F` [Example 12-2]: 11 nM and 310 nM.
For `O=C(O)C1CC1c1ccc(CCOc2ccc(-c3ccn[nH]3)nc2)c(F)c1` (stereo not drawn) [Example 71-16], the IC50 on human CYP4F2 (setting [1]) worked out at 91 nM; against human CYP4A11 (setting [2]), 190 nM.
Turning to `O=C(O)Cn1ncc2cc(COc3ccc(-c4ccn[nH]4)nc3)ccc21` [Example 16-1, 2-[5-[[6-(1H-Pyrazol-5-yl)-3-pyridinyl]oxymethyl]-1-indazolyl]acetic Acid], the IC50 was determined as 1400 nM against human CYP4F2 (setting [3]) and 53 nM against human CYP4A11 (setting [4]).
The matching figures for `CS(=O)(=O)NC(=O)NCCCCOc1ccc(-c2ccn[nH]2)nc1` [Example 61-1, 1-Methylsulfonyl-3-[4-[[6-(1-H-pyrazol-5-yl)-3-pyridinyl]oxy]butyl]urea]: 8000 nM and 72 nM.
Taken in the same sequence, the figures for `Oc1cc(CCCCOc2ccc(-c3ccn[nH]3)nc2)on1` [Example 64-1, 5-[4-[[6-(1H-Pyrazol-5-yl)-3-pyridinyl]oxy]butyl]-3-isoxazole] were 780 nM and 41 nM.
The matching figures for `O=C(O)Cc1cccc(CCCOc2ccc(-c3ccn[nH]3)nc2)c1` [Example 32-1, 2-[3-[3-[[6-(1H-Pyrazol-5-yl)-3-pyridinyl]oxy]propyl]phenyl]acetic Acid]: 430 nM and 33 nM.
For the compound `O=C(O)COc1ccc(COc2ccc(-c3ccn[nH]3)nc2)cc1` [Example 8-9], the IC50 amounted to 6200 nM against human CYP4F2 (setting [3]) and 29 nM against human CYP4A11 (setting [4]).
In the case of `O=C(O)Cc1ccc(COc2ccc(-c3ccn[nH]3)nc2)cc1` [Example 21-1, 2-[4-[[6-(1H-Pyrazol-5-yl)-3-pyridinyl]oxymethyl]phenyl]acetic Acid], the results for the IC50 against human CYP4F2 (setting [3]) and on human CYP4A11 (setting [4]) were 15000 nM and 43 nM, respectively.
Consider `O=C(O)C1CC1c1ccc(CCOc2ccc(-c3ccn[nH]3)nc2)cc1` (stereo not drawn) [Example 70-9], for which the IC50 against human CYP4F2 (setting [1]) was 200 nM; on human CYP4A11 (setting [2]), 210 nM.
Turning to `CN(C(=O)c1cccc(COc2ccc(-c3ccn[nH]3)nc2)c1)S(C)(=O)=O` [Example 44-2], the IC50 was determined as 73 nM at human CYP4F2 (setting [1]) and 340 nM against human CYP4A11 (setting [2]).
As to `CN(C)C(=O)N1CCC(O)(c2cccc(COc3ccc(-c4ccn[nH]4)nc3)c2)CC1` [Example 51-2], the IC50 on human CYP4F2 (setting [3]) came out at 3.5 nM; at human CYP4A11 (setting [4]) it was 310 nM.
With `OC(c1ccc(COc2ccc(-c3ccn[nH]3)nc2)cc1)C(F)F` (stereo not drawn) [Example 59-2, 2,2-Difluoro-1-[4-[[6-(1H-pyrazol-5-yl)-3-pyridinyl]oxymethyl]phenyl]ethanol], the IC50 at human CYP4F2 (setting [3]) stood at 100 nM; on human CYP4A11 (setting [4]), 1800 nM.
For `O=C(O)C1(CCCCCCCCOc2ccc(-c3ccn[nH]3)nc2)CCOC1` (stereo not drawn) [Example 72-4], the results for the IC50 against human CYP4F2 (setting [1]) and at human CYP4A11 (setting [2]) were 14 nM and 150 nM, respectively.
Taken in the same sequence, the figures for `O=C(O)C1CCN(C(=O)c2cccc(COc3ccc(-c4ccn[nH]4)nc3)c2)C1` (stereo not drawn) [Example 45-36] were 1100 nM and 230 nM.
Take `C[C@@H](NC(=O)c1cccc(COc2ccc(-c3ccn[nH]3)nc2)c1)C(=O)O` [Example 45-10]: the IC50 was 10000 nM on human CYP4F2 (setting [1]) and 180 nM against human CYP4A11 (setting [2]).
The matching figures for `CC(C)(Cc1ccc(CCOc2ccc(-c3ccn[nH]3)nc2)cn1)C(=O)O` [Example 71-28]: 6200 nM and 1600 nM.
As for `O=C(O)C1(CCCCCCOc2ccc(-c3ccn[nH]3)nc2)CCCCC1` [Example 1-44], the IC50 against human CYP4F2 (setting [3]) was 510 nM; against human CYP4A11 (setting [4]) it was 110 nM.
For the compound `O=C(O)CCNC(=O)c1cc(COc2ccc(-c3ccn[nH]3)nc2)ccn1` [Example 49-1, 3-[[Oxo-[4-[[6-(1H-pyrazol-5-yl)-3-pyridinyl]oxymethyl]-2-pyridinyl]methyl]amino]propanoic Acid], the IC50 against human CYP4F2 (setting [3]) is 1100 nM; against human CYP4A11 (setting [4]) it was 1200 nM.
Turning to `Cc1cc(COc2ccc(-c3ccn[nH]3)nc2)ccc1C(=O)O` [Example 25-1, 2-Methyl-4-[[6-(1H-pyrazol-5-yl)-3-pyridinyl]oxymethyl]benzoic Acid], the IC50 against human CYP4F2 (setting [3]) is 16000 nM; against human CYP4A11 (setting [4]), 33 nM.
As to `CC(C)(COc1cccc(CCCOc2ccc(-c3ccn[nH]3)nc2)n1)C(=O)O` [Example 71-41], the values for the IC50 on human CYP4F2 (setting [1]) and against human CYP4A11 (setting [2]) were 660 nM and 160 nM, respectively.
On to `c1cc(-c2ccc(OCCCCCc3nnn[nH]3)cn2)[nH]n1` [Example 62-1, 2-(1H-Pyrazol-5-yl)-5-[5-(1H-tetrazol-5-yl)pentoxy]pyridine], for which the IC50 against human CYP4F2 (setting [3]) was found to be 3500 nM; against human CYP4A11 (setting [4]), 28 nM.
The matching figures for `O=C(CCCCCCOc1ccc(-c2ccn[nH]2)nc1)NC1(C(=O)O)CCCC1` [Example 50-1, 1-[[1-Oxo-7-[[6-(1H-pyrazol-5-yl)-3-pyridinyl]oxy]heptyl]amino]-1-cyclopentanecarboxylic Acid]: 2800 nM and 75 nM.
For `O=C(O)C1CC1c1ccc(COc2ccc(-c3ccn[nH]3)nc2)cc1` (stereo not drawn) [Example 71-15], the IC50 on human CYP4F2 (setting [1]) is 1200 nM; against human CYP4A11 (setting [2]), 84 nM.
Take `O=C(O)C1CC1c1ccc(COc2ccc(-c3ccn[nH]3)nc2)c(F)c1` (stereo not drawn) [Example 71-24]: the results for the IC50 against human CYP4F2 (setting [1]) and on human CYP4A11 (setting [2]) were 2100 nM and 72 nM, respectively.
On to `O=C(O)CC1CCCN(C(=O)c2cccc(COc3ccc(-c4ccn[nH]4)nc3)c2)C1` (stereo not drawn) [Example 45-31], for which the IC50 stood at 2500 nM against human CYP4F2 (setting [1]) and 370 nM on human CYP4A11 (setting [2]).
Consider `O=C(O)CCCCCCCOc1ccc(-c2ccn[nH]2)nc1` [Example 1-48], for which the IC50 stood at 2000 nM on human CYP4F2 (setting [3]) and 44 nM against human CYP4A11 (setting [4]).
Taken in the same sequence, the figures for `CC(C)(CCCOc1ccc(-c2ccn[nH]2)nc1)CC(=O)O` [Example 1-60] were 31000 nM and 38 nM.
Regarding `CC(C)(CC(=O)N1CCC(CCCOc2ccc(-c3ccn[nH]3)nc2)CC1)C(=O)O` [Example 1-31], the IC50 against human CYP4F2 (setting [3]) was found to be 160 nM; at human CYP4A11 (setting [4]) it was 1700 nM.
Consider `O=C(NCC1(C(=O)O)CCOCC1)c1cccc(COc2ccc(-c3ccn[nH]3)nc2)c1` [Example 45-6], for which the results for the IC50 at human CYP4F2 (setting [1]) and against human CYP4A11 (setting [2]) were 4500 nM and 250 nM, respectively.
On to `O=C(N[C@H]1CC[C@@H](C(=O)O)CC1)c1cccc(COc2ccc(-c3ccn[nH]3)nc2)c1` [Example 45-19], for which the IC50 on human CYP4F2 (setting [1]) amounted to 13000 nM; against human CYP4A11 (setting [2]), 1000 nM.
Taken in the same sequence, the figures for `C[C@H](NC(=O)c1cccc(COc2ccc(-c3ccn[nH]3)nc2)c1)C(=O)O` [Example 45-9] were 4800 nM and 82 nM.
As to `O=C(O)CCc1ccccc1CCCOc1ccc(-c2ccn[nH]2)nc1` [Example 1-17], the IC50 stood at 5100 nM against human CYP4F2 (setting [3]) and 16 nM on human CYP4A11 (setting [4]).
In the case of `Cc1cc(OCC23CCC(C(=O)O)(CC2)CC3)cnc1-c1ccn[nH]1` [Example 1-22], the IC50 against human CYP4F2 (setting [3]) was greater than 50000 nM; at human CYP4A11 (setting [4]), 38 nM.
As to `O=C(O)C1(CCCCCCCCOc2ccc(-c3ccn[nH]3)nc2)CCCO1` (stereo not drawn) [Example 72-5], the IC50 against human CYP4F2 (setting [1]) was determined as 43 nM; against human CYP4A11 (setting [2]), 260 nM.
Turning to `COCCNC(=O)CCc1cccc(COc2ccc(-c3ccn[nH]3)nc2)c1` [Example 43-5], the IC50 on human CYP4F2 (setting [1]) came to 40 nM; at human CYP4A11 (setting [2]) it was 82 nM.
On to `O=C(O)CCCCCCOc1ccc(-c2ccn[nH]2)nc1` [Example 22-20, 7-[[6-(1H-Pyrazol-5-yl)-3-pyridinyl]oxy]heptanoic Acid], for which the IC50 turned out to be 9600 nM against human CYP4F2 (setting [3]) and 76 nM against human CYP4A11 (setting [4]).

Source of the values: US11365192B2, “Pyridine compound substituted with azole” (TAISHO PHARMACEUTICAL CO., LTD., priority 2017, dated 2022).
